{"source": "patent US6623933B1", "about": "(priority 1999, dated 2003)", "key": {"[1]": {"test_system": "primary cultures of rat hippocampal neurons", "assay": "NMDA-induced neuronal death, trypan blue exclusion", "assay_type": "cell-based", "settings": "DNQX; 100 μM SR-95531; not shown", "method": "Principally neuronal cultures were prepared from hippocampal tissue of fetal Sprague-Dawley rats on day 18 of embryonic development, as previously described (Brewer et al., Brain Research 494: 65-74 (1989)). Briefly, hippocampal cells were dissociated by trituration in Ca^2+/Mg^2+-free Hank's basic salt solution (Gibco) supplemented with 4.2 mM bicarbonate, 1 mM sodium pyruvate, 20 mM HEPES, 3 mg/ml bovine serum albumin (BSA). Dissociated cells were then pelleted by centrifugation (500×g, 4 min). […] Cells were then plated onto poly-L-lysine-coated 24-well culture dishes (Nunclon) at a density of 15,000 cell/cm^2 and maintained in a humidified atmosphere containing 5% CO2/95% air at 37° C. After 48 h, nonneuronal cell division was inhibited by a 48 h exposure to 1 μM cytosine arabinoside. Cultures were subsequently maintained in serum-free DMEM plus defined components and were used for experiments 16 to 24 days after plating.\nSteroids were dissolved in DMSO (0.5% final concentration), and all treatment media contained 0.5% DMSO. […] Following exposure, cultures were washed 3 times with medium from sister cultures (conditioned medium). After the final wash, steroid or vehicle was reintroduced. Drugs were added to cultures in 25 μl of conditioned medium to yield a final volume of 0.25 ml per well. Except where otherwise noted, final steroid concentration was 100 μM.\nThe ability of neurons to exclude trypan blue was used to quantitate cell viability (Dawson et al., Proc Natl Acad Sci USA 88: 6368-6371 (1991)). […] Cultures were then fixed with 4% paraformaldehyde in PBS for 30 min, at whichtime the fixative was replaced with PBS. The number of stained and unstained neurons were counted in 4 high-power fields per culture well, using an inverted phase contrast microscope under both bright field and phase contrast settings. Experiments were performed in triplicate, and all assessments were made with the experimenter blind to the treatment of each culture well. Percent cell death is expressed as follows: (number of trypan blue stained neurons)/(total number of neurons)×100%.\nAll data are expressed as mean±standard error of the mean. Statistical significance was evaluated using 95% confidence limits unless otherwise noted."}, "NR1111/NR2A": {"molecular_target": "NR1111/NR2A (Rattus norvegicus, UniProt P35439+Q00959)", "sequence (Q00959 23-1464, other chains not shown)": "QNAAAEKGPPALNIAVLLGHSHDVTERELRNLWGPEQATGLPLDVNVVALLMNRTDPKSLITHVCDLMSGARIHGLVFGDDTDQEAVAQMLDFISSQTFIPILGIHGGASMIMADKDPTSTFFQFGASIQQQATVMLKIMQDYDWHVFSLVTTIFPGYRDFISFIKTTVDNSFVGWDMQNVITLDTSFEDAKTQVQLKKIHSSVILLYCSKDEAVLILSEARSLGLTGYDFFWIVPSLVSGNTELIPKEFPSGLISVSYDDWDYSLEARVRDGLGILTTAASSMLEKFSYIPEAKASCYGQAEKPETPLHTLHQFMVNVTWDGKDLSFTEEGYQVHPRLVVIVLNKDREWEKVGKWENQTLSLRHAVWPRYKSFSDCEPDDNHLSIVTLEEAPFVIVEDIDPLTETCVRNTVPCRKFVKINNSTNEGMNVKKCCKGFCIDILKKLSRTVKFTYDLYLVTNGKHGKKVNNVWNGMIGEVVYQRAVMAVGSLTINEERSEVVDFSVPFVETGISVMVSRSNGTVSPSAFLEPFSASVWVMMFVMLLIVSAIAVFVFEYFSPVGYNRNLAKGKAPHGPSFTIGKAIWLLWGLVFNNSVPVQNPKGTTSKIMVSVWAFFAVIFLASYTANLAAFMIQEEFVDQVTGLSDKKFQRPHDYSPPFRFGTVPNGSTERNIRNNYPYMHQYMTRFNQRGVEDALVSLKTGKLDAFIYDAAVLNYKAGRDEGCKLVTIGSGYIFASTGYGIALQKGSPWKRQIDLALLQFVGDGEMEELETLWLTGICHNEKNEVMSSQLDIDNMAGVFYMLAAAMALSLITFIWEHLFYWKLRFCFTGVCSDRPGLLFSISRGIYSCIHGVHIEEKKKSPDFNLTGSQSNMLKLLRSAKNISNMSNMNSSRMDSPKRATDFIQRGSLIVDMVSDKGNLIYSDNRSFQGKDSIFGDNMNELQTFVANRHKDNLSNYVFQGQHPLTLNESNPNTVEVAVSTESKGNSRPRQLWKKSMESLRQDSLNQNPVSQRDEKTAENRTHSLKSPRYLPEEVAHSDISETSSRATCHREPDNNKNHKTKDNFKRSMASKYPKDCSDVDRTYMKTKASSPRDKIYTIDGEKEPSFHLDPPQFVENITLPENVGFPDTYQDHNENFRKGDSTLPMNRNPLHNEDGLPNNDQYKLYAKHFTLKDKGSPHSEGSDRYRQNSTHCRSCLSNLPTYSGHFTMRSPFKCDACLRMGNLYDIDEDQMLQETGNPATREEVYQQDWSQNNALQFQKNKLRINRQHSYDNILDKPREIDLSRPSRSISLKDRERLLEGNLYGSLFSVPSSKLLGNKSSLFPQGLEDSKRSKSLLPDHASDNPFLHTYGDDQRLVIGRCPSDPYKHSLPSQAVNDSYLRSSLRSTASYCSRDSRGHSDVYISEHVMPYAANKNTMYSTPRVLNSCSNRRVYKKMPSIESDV", "design": "agonist Emax: dose or concentration left out as unconfirmed", "settings": "NR1111/NR2A"}, "NR1000/NR2A": {"molecular_target": "NR1000/NR2A (Rattus norvegicus, UniProt P35439+Q00959)", "design": "agonist Emax: dose or concentration left out as unconfirmed", "settings": "NR1000/NR2A"}, "NR1/NR2D (NR1100)": {"molecular_target": "NR1/NR2D (NR1100) (Rattus norvegicus, UniProt P35439+Q62645)", "source_text": "(§5) Plasmids containing the NR1100 (NR1G) and NR2A cDNA inserts were kindly provided by Dr. Nakanishi (Kyoto University Faculty of Medicine, Kyoto, Japan). Plasmids containing the NR2B, NR2C and NR2D cDNA inserts were kindly provided by Dr. P. Seeburg (Heidelberg University, Heidelberg, Germany). Plasmids were linearized with appropriate restriction enzyme prior to in vitro transcription using the Message Machine kit (Ambion, Inc., Austin, Tex.).\n(§6) Female, oocyte-positive Xenopus laevis frogs were purchased from Xenopus I (Dexter, Mich.). […] Oocytes were injected with 50 nL of RNA solutions using an electronic microinjector (Drummond Inc., Broomall, Pa.). […] The injected oocytes were used for experiments following 1-5 days of incubation in Barth's solution at 18-20° C.\n(§7) The microelectrodes were fabricated from borosilicate glass capillaries with a programmed puller (Sutter Instrument Co., Calif.). Microelectrode resistance was 1-3 MΩ_when filled with 3 M KCl.\n(§8) Except where otherwise stated, oocytes were clamped at a holding potential of −70 mV during data acquisition. The membrane current was filtered at 500 Hz and sampled at 100 Hz. Drugs were applied using a gravity-driven external perfusion system. The working volume of the recording chamber was 30 μl and the rate of the perfusion was 50 μl/sec. The drug application lasted 10 sec and was followed by 60 s wash. Data acquisition and external perfusion were controlled using custom-written software implemented in the SuperScope II development environment (GW Instruments, Mass.). All experiments were performed at room temperature of 22-24° C. Peak or steady-state current measurements were normalized and expressed as a fraction of the peak or steady-state control current measurements, which were performed before and after application of every single concentration of agonists or steroids.\n(§9) Concentration-response data were analyzed by nonlinear regress ion using the logistic equation Response=Emax/(1+(EC50/c)^nH), where c is concentration, Emaxis the maximum response, nHis the Hill coefficient. The data are presented as mean±SEM. EC50values are averaged as logarithms (De Lean et al., Am. J. Physiol. 235: E97-E102 (1978))±the SEM of the log EC50. […] The pooled data were simultaneously fitted to the logistic equation, either with Emax and EC50 constrained to be identical in the presence and absence of PS, or allowing one or both to vary independently. […] This was regarded as indicating a significant treatment effect of PS, but the change in EC50and Emaxwas not considered significant. […] No attempt was made to test the generally small changes in nHfor statistical significance."}, "NR1100/NR2A": {"molecular_target": "NR1100/NR2A (Rattus norvegicus, UniProt P35439+Q00959)", "design": "agonist nHill / agonist Emax: dose or concentration left out as unconfirmed", "settings": "NR1100/NR2A"}, "NR1/NR2B (NR1100)": {"molecular_target": "NR1/NR2B (NR1100) (Rattus norvegicus, UniProt P35439+Q00960)", "source_text": "as §5, §6, §7, §8, §9"}, "NR1/NR2A (NR1100)": {"molecular_target": "NR1/NR2A (NR1100) (Rattus norvegicus, UniProt P35439+Q00959)", "sequence (Q00959 23-1464, other chains not shown)": "as above", "source_text": "as §5, §6, §7, §8, §9"}, "NR1001/NR2A": {"molecular_target": "NR1001/NR2A (Rattus norvegicus, UniProt P35439+Q00959)", "design": "agonist Emax: dose or concentration left out as unconfirmed", "settings": "NR1001/NR2A"}, "NR1/NR2C (NR1100)": {"molecular_target": "NR1/NR2C (NR1100) (Rattus norvegicus, UniProt P35439+Q00961)", "settings": "NR1/NR2C; for EC50: read-out: agonist EC50", "source_text": "as §5, §6, §7, §8, §9"}, "NR1011/NR2A": {"molecular_target": "NR1011/NR2A (Rattus norvegicus, UniProt P35439+Q00959)", "design": "agonist Emax: dose or concentration left out as unconfirmed", "settings": "NR1011/NR2A"}, "NR1010/NR2A": {"molecular_target": "NR1010/NR2A (Rattus norvegicus, UniProt P35439+Q00959)", "sequence (Q00959 23-1464, other chains not shown)": "as above", "design": "agonist nHill / agonist Emax: dose or concentration left out as unconfirmed", "settings": "NR1010/NR2A"}, "NR1101/NR2A": {"molecular_target": "NR1101/NR2A (Rattus norvegicus, UniProt P35439+Q00959)", "design": "agonist Emax: dose or concentration left out as unconfirmed", "settings": "NR1101/NR2A"}, "GluR6 kainate receptor": {"molecular_target": "T1, GluR6 kainate receptor (Rattus norvegicus, UniProt P42260)", "T1 construct": "expressed in transfected cells; host or cells: Xenopus oocytes injected with GluR6 cRNA (concanavalin A treated)", "assay": "Kainate-induced currents, Xenopus oocytes injected with GluR6 cRNA", "assay_type": "cell-based", "settings": "GluR6; steroid 100 μM; 10 μM kainate; −100 mV", "text": "(§1) Plasmids were obtained from the following individuals: Dr. Suzanne Zukin (Albert Einstein College of Medicine, Bronx, N.Y.), NR1100; Dr. Shigetada Nakanishi (Kyoto University Faculty of Medicine, Kyoto, Japan), NR2A; Dr. Stephen Heinemann (Salk Institute, San Diego, Calif.), GluR1 (flop), GluR3 (flop), and GluR6. Plasmids were linearized with BamH1 (NR1100), XhoI (NR2A, GluR1, GluR3) or XbaI (GluR6) prior to in vitro transcription with T3 (GluR1, GluR3, GluR6) or T7 (NR1100, NR2A) RNA polymerase using the Message Machine kit (Ambion, Austin, Tex.). […] RNA solutions (50-70 nl) were injected into oocytes for delivery of NR1100 (5 ng), NR1100:NR2A (1:10 ng), GluR1 (5 ng). GluR3 (5 ng), or GluR6 (20 ng). Oocytes were incubated in ND96 at 18-20° C. for 3-7 days prior to electrophysiological recording.\n(§2) Steroid solutions were prepared as 70-100 mM frozen stocks in dimethyl sulfoxide (DMSO). The final DMSO concentration of all recording solutions was between 0.1% to 0.5% and was constant within an experiment.\n(§3) Perfusion control and data acquisition were carried out using an automated oocyte electrophysiology workstation that was developed for the rapid collection of concentration-response data and real-time waveform analysis (Yaghoubi et al., Soc. Neurosci. Abstr. 20: 1109 (1995)). This system is implemented on a Macintosh IIci computer (Apple Computer, Cupertino, Calif.) equipped with MacA-DIOS II data acquisition and control hardware (GW Instruments, Somerville, Mass.). Drug application is controlled by the computer through a series of valves, using custom-written software based on the SuperScope II development environment, improving the efficiency and reproducibility of data collection. Experiments were carried out using an Axoclamp-2A voltage clamp amplifier (Axon Instruments, Foster City, Calif.) in two-electrode voltage clamp mode. Intracellular microelectrodes (1-3 MΩ) were filled with 3 M KCl. […] Membrane potential was clamped at −60 to −70 mV and stepped to −100 mV at the start of data acquisition unless otherwise stated. […] Current and voltage recordings were digitized at 100 Hz for analysis. GluR6 injected oocytes were treated for 10 min with 10 μg/ml concanavalin A to prevent fast desensitization.\n(§4) Results are expressed as mean±S.E.M. Statistical comparisons were made using Student's t-test."}, "GluR3 AMPA receptor": {"molecular_target": "T2, GluR3 AMPA receptor (Rattus norvegicus, UniProt P19492)", "T2 construct": "expressed in transfected cells; host or cells: Xenopus oocytes injected with GluR3 cRNA", "assay": "Kainate-induced currents, Xenopus oocytes injected with GluR3 cRNA", "assay_type": "cell-based", "settings": "GluR3; steroid 100 μM; 100 μM kainate; −100 mV", "text": "as §1, §2, §3, §4"}, "GluR1 AMPA receptor": {"molecular_target": "T3, GluR1 AMPA receptor (Rattus norvegicus, UniProt P19490)", "T3 construct": "expressed in transfected cells; host or cells: Xenopus oocytes injected with GluR1 cRNA", "assay": "Kainate-induced currents, Xenopus oocytes injected with GluR1 cRNA", "assay_type": "cell-based", "settings": "GluR1; steroid 100 μM; 100 μM kainate; −100 mV", "text": "as §1, §2, §3, §4"}}, "note": "Like-named read-outs stand apart in the source and are kept apart here."}
{"smiles": "O=C1N=c2cc([N+](=O)[O-])c([N+](=O)[O-])cc2=NC1=O", "note": "[DNQX, 6,7-dinitroquinoxaline-2,3-dione]", "values": [{"measurement": "effect on NMDA-induced neuronal death", "setting": "[1]", "value": "no effect"}]}
{"smiles": "N[C@@H](CCC(=O)O)C(=O)O", "note": "[L-glutamate]", "values": [{"measurement": "agonist Emax", "setting": "NR1111/NR2A; absence of PS", "value": "1.87 ± 0.12"}, {"measurement": "agonist nHill", "setting": "NR1111/NR2A; absence of PS", "value": "1.39 ± 0.02"}, {"measurement": "agonist Emax", "setting": "NR1111/NR2A; presence of PS", "value": "2.62 ± 0.27"}, {"measurement": "agonist Emax", "setting": "NR1000/NR2A; absence of PS", "value": "1.75 ± 0.02"}, {"measurement": "agonist Emax", "setting": "NR1000/NR2A; presence of PS", "value": "2.92 ± 0.03"}, {"measurement": "agonist Emax", "setting": "NR1/NR2D (NR1100); +100 μM PS", "value": 0.80}, {"measurement": "agonist Emax", "setting": "NR1/NR2D (NR1100); no PS", "value": "1.10 ± 0.03"}, {"measurement": "EC50", "setting": "NR1/NR2D (NR1100); read-out: agonist EC50, +100 μM PS", "value": 37, "unit": "nM"}, {"measurement": "EC50", "setting": "NR1/NR2D (NR1100); read-out: agonist EC50, no PS", "value": 25, "unit": "nM"}, {"measurement": "agonist Emax", "setting": "NR1100/NR2A; absence of PS", "value": "1.50 ± 0.04"}, {"measurement": "agonist nHill", "setting": "NR1100/NR2A; absence of PS", "value": "1.15 ± 0.04"}, {"measurement": "agonist Emax", "setting": "NR1100/NR2A; presence", "value": "2.30 ± 0.21"}, {"measurement": "agonist nHill", "setting": "NR1100/NR2A; presence", "value": "0.98 ± 0.06"}, {"measurement": "agonist Emax", "setting": "NR1/NR2B (NR1100); +100 μM PS", "value": "1.34 ± 0.07"}, {"measurement": "agonist Emax", "setting": "NR1/NR2B (NR1100); no PS", "value": "1.23 ± 0.04"}, {"measurement": "agonist nH", "setting": "NR1/NR2B (NR1100); no PS", "value": "1.14 ± 0.10"}, {"measurement": "agonist Emax", "setting": "NR1/NR2A (NR1100); +100 μM PS", "value": "2.3 ± 0.2"}, {"measurement": "agonist nH", "setting": "NR1/NR2A (NR1100); +100 μM PS", "value": "0.98 ± 0.06"}, {"measurement": "agonist nH", "setting": "NR1/NR2A (NR1100); no PS", "value": "1.15 ± 0.04"}, {"measurement": "agonist Emax", "setting": "NR1/NR2A (NR1100); no PS, normalized to 200 μM NMDA plus 10 μM glycine", "value": 1.50}, {"measurement": "agonist Emax", "setting": "NR1001/NR2A; absence of PS", "value": "2.10 ± 0.12"}, {"measurement": "agonist nHill", "setting": "NR1001/NR2A; presence of 100 mM PS", "value": "1.57 ± 0.18"}, {"measurement": "agonist Emax", "setting": "NR1001/NR2A; presence of PS", "value": "2.85 ± .26"}, {"measurement": "agonist Emax", "setting": "NR1/NR2C (NR1100); +100 μM PS", "value": 0.87}, {"measurement": "agonist Emax", "setting": "NR1/NR2C (NR1100); no PS", "value": "1.31 ± 0.02"}, {"measurement": "EC50", "setting": "NR1/NR2C (NR1100); +100 μM PS", "value": 60, "unit": "nM"}, {"measurement": "EC50", "setting": "NR1/NR2C (NR1100); no PS", "value": 75, "unit": "nM"}, {"measurement": "agonist Emax", "setting": "NR1011/NR2A; absence of PS", "value": "1.59 ± 0.03"}, {"measurement": "agonist Emax", "setting": "NR1011/NR2A; presence of PS", "value": "2.08 ± 0.21"}, {"measurement": "agonist Emax", "setting": "NR1010/NR2A; absence of PS", "value": "1.48 ± 0.03"}, {"measurement": "agonist nHill", "setting": "NR1010/NR2A; absence of PS", "value": "1.32 ± 0.14"}, {"measurement": "agonist nHill", "setting": "NR1010/NR2A; presence of PS", "value": "1.59 ± 0.15"}, {"measurement": "agonist Emax", "setting": "NR1101/NR2A; absence of PS", "value": "1.77 ± 0.09"}, {"measurement": "agonist Emax", "setting": "NR1101/NR2A; presence of PS", "value": "2.72 ± 0.07"}]}
{"smiles": "C[C@]12CC[C@@H]3c4ccc(OS(=O)(=O)O)cc4CC[C@H]3[C@@H]1CC[C@H]2O", "note": "[17α-Estradiol-3-sulfate]", "values": [{"measurement": "Percentage change in kainate response", "setting": "GluR6 kainate receptor", "value": "−7 ± 1(5) %"}, {"measurement": "Percentage change in kainate response", "setting": "GluR3 AMPA receptor", "value": "−17 ± 2(3) %"}, {"measurement": "Percentage change in kainate response", "setting": "GluR1 AMPA receptor", "value": "−22 ± 3(3) %"}]}
{"smiles": "C[C@]12CC[C@H](O)CC1=CC[C@@H]1[C@@H]2CC[C@]2(C)C(=O)CC[C@@H]12", "note": "[Dehydroepiandrosterone]", "values": [{"measurement": "Percentage change in kainate response", "setting": "GluR6 kainate receptor", "value": "−5 ± 1(3) %"}, {"measurement": "Percentage change in kainate response", "setting": "GluR3 AMPA receptor", "value": "−7 ± 5(3) %"}, {"measurement": "Percentage change in kainate response", "setting": "GluR1 AMPA receptor", "value": "−16 ± 3(3) %"}]}
